The target of experiment [1] is Casein kinase I isoform gamma-1 (Homo sapiens) (UniProt Q9HCP0). The experiment is described as follows: Selectivity interaction (Ambit KINOMEscan and KiNATiv profiling in Jurkat cells) EUB0000090b CSNK1G1. The format is cell-based. The following applies: at 1 µM.
Experiment [2] deals with T1, Serine/threonine-protein kinase DCLK1 (Homo sapiens) (UniProt O15075).
T1 sequence (whole entry): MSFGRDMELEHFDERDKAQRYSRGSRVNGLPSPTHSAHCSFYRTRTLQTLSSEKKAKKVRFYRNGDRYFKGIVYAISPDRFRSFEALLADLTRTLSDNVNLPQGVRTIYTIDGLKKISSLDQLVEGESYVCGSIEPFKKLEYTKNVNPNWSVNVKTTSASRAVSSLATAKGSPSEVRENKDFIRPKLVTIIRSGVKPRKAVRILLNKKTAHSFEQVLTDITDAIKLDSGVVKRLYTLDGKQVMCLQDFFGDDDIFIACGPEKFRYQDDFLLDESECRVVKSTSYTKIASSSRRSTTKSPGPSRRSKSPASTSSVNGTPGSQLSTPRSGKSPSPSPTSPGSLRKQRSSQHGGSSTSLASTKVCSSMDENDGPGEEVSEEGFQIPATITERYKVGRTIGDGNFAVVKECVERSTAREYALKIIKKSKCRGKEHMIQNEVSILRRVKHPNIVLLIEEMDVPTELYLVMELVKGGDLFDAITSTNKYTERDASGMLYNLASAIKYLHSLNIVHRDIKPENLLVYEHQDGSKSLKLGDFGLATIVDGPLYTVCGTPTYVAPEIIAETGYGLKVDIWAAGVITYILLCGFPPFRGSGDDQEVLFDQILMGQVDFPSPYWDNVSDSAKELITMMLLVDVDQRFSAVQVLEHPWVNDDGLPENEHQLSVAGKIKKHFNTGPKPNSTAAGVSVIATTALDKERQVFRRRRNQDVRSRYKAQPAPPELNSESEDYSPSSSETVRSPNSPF
The experiment is described as follows: Selectivity interaction (Kinase panel (DSF assay)) EUB0001558a DCLK1. For orientation: In DSF a fluorescence change marks the thermal transition of the protein.

Experiment [3] deals with Tyrosine-protein kinase JAK2 (Homo sapiens, UniProt O60674). The experiment is described as follows: Selectivity interaction (Kinase panel (33PanQinase(R) Activity Assay)) EUB0000877a JAK2.
Experiment [4] relates to T2, Receptor-type tyrosine-protein kinase FLT3 (Homo sapiens), P36888 [D835H].
T2 sequence (whole entry): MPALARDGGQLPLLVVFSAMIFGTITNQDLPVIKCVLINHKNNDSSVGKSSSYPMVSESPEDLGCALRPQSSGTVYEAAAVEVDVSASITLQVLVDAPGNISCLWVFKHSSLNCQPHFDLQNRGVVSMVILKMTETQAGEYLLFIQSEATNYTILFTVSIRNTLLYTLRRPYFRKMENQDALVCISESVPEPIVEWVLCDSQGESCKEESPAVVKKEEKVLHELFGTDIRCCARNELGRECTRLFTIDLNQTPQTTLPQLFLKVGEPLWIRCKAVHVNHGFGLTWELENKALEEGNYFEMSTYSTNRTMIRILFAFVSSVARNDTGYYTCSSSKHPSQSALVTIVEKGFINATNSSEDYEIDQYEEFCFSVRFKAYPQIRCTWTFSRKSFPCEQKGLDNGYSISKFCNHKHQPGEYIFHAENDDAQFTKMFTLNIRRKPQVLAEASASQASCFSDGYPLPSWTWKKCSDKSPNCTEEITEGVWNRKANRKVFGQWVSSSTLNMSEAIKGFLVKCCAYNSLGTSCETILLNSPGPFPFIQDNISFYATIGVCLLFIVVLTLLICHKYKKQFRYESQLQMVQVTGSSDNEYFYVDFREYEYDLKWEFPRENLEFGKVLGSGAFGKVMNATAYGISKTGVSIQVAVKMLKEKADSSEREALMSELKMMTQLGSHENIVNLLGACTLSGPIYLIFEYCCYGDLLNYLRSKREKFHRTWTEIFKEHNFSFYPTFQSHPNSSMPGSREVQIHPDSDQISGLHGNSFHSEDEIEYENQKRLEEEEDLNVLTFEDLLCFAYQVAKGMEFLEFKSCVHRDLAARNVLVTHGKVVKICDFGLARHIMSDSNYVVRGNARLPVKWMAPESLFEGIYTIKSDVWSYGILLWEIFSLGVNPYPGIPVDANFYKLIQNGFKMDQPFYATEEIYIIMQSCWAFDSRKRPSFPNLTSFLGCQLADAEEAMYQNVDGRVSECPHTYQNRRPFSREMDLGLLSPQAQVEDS
To be noted: at 10 µM.

Experiment [5] concerns the target T3, Serine/threonine-protein kinase Sgk3 (Homo sapiens) (UniProt Q96BR1).
T3 sequence (whole entry): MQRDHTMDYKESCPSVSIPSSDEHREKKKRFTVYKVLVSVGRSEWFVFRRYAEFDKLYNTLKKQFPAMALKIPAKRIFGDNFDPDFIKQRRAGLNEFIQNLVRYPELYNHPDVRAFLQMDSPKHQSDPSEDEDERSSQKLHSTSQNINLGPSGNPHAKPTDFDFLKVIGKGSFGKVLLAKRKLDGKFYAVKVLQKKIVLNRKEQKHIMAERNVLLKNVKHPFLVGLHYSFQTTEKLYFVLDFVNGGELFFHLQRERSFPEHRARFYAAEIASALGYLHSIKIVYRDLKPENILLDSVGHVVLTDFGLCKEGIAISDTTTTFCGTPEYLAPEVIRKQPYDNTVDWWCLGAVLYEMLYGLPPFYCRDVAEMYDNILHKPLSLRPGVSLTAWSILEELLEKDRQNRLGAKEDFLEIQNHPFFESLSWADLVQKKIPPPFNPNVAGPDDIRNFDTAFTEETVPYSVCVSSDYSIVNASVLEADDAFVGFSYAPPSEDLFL
The experiment is described as follows: Selectivity interaction (KinomeScan (DiscoverX)) EUB0000695a SGK3. The following applies: at 100 nM.

Molecules are shown by their SMILES.

Chain of Tyrosine-protein kinase JAK2 (O60674 whole entry): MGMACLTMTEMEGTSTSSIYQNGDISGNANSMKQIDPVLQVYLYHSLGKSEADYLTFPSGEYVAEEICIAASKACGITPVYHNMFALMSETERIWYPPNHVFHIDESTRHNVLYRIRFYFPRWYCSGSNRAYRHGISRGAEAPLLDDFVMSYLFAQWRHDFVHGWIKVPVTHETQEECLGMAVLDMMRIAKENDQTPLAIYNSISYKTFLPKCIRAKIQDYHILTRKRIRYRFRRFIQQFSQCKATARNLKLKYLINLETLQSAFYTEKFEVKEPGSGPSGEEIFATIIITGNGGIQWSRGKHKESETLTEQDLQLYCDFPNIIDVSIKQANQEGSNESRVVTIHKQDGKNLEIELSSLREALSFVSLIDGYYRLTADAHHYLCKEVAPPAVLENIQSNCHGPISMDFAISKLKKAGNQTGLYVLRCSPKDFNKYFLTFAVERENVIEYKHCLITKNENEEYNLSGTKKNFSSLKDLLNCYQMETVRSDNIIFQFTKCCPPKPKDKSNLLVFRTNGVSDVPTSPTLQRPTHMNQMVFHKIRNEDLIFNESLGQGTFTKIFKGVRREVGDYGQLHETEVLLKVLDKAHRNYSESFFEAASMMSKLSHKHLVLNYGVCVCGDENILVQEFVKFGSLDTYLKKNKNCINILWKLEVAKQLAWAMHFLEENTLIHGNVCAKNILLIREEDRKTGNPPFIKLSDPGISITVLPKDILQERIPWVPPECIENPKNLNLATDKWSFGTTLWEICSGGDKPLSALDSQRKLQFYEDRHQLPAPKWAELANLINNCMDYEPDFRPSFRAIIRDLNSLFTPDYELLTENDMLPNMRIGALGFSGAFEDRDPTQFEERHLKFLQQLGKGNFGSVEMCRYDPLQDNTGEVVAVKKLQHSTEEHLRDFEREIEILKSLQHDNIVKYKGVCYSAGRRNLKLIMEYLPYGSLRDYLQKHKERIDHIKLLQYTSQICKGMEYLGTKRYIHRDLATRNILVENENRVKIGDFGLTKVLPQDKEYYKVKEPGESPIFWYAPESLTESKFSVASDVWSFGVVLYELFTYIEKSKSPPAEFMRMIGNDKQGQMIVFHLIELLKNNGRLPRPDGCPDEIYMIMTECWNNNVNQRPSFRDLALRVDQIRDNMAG
Chain of Casein kinase I isoform gamma-1 (Homo sapiens) (Q9HCP0 whole entry, looked up, canonical isoform): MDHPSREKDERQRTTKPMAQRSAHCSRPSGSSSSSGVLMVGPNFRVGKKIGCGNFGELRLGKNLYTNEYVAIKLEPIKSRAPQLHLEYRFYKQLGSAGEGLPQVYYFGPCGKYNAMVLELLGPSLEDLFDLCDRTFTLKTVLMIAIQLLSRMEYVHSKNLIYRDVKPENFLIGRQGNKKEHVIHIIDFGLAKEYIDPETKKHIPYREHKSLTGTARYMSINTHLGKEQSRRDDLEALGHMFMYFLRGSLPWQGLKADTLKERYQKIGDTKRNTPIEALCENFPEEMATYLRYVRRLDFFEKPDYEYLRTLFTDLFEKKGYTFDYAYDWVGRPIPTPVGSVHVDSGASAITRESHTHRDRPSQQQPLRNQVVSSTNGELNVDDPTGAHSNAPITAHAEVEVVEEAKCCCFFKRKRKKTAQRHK

Take `CN(C)C/C=C/C(=O)Nc1ccc(C(=O)N2CCCC(Nc3ncc(Cl)c(-c4c[nH]c5ccccc45)n3)C2)cc1` (stereo not given): the % of control in experiment [1] was found to be 94%. In experiment [2], `CC(C)(O)[C@H](F)CN1Cc2cc(NC(=O)c3cnn4cccnc34)c(N3CCOCC3)cc2C1=O` returned a dTM of -1 K. Regarding `CCC(=O)N1CC[C@H](Nc2ncnc3c2CN(c2cnc(OC)c(C(F)(F)F)c2)CC3)C1` [LENIOLISIB], the IC50 in experiment [3] was greater than 10 µM. Regarding `CCN(CC)CCCCNc1ncc2cc(-c3cc(OC)cc(OC)c3)c(NC(=O)NC(C)(C)C)nc2n1`, in experiment [4], the % of control was 100%.

Compound `Cc1cc(F)c(C(=O)Nc2cccc(-c3nncn3C(C)C)n2)cc1-n1cnc(C2CC2)c1` gave a % of control in experiment [5] of 100%.

What is called IC50 is the concentration at which inhibition is half-maximal. Read a low IC50 as greater potency.

Source of the values: ChEMBL document CHEMBL5465560, “Selectivity Literature for EUbOPEN Chemogenomic Library” (2024).
